Measured values reported in US10221177B2 (HYDRA BIOSCIENCES, INC., priority 2014, dated 2019).
“And” between values parts separate entries of the source, which are not always exact repeats. Identical values can stand only once.

Tests used:
human TRPA1 = human TRPA1 (Homo sapiens (Human), UniProt O75762); experiment: In vitro inhibition of human TRPA1, whole cell patch configuration; assay type: cell-based; conditions: current activation 10 μM AITC, tested concentrations 320 pM to 3.2 μM, read-out: hTRPA1 IC50
Sequence of human TRPA1 (O75762 whole entry, the tested form may be a part): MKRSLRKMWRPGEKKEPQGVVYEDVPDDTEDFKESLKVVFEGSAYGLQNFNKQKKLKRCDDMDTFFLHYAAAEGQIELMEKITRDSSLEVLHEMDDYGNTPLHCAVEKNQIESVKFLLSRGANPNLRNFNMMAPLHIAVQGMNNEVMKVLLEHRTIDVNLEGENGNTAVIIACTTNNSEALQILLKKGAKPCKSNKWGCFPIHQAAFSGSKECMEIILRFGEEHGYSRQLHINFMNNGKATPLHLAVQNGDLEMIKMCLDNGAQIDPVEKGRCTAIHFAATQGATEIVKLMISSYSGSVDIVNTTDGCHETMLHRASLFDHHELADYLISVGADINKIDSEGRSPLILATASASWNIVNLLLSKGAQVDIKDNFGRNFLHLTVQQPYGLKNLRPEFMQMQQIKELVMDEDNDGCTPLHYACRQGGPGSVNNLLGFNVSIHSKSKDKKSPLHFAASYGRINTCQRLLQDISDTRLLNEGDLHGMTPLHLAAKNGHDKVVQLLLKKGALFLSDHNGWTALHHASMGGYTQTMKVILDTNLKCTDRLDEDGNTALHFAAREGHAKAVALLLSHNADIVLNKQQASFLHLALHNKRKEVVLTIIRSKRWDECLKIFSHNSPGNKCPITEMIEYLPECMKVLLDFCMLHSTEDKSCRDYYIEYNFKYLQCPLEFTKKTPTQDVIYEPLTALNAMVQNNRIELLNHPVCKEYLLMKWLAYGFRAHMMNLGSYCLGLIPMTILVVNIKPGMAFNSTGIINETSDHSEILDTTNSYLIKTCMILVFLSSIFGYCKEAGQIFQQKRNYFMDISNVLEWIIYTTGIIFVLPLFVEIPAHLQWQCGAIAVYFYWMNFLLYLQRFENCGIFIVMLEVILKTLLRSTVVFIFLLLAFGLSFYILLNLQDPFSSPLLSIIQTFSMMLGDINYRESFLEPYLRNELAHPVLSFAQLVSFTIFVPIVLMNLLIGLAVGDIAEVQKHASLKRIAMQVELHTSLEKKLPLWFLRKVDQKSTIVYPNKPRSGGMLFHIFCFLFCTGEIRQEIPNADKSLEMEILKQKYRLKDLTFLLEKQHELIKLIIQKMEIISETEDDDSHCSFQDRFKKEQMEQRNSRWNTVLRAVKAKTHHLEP
Outline: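 Whole-cell patch clamp, bath 150 mM NaCl, 10 mM HEPES, 1 mM EGTA, 3 mM MgCl2, pH 7.4 (sometimes 2 mM CaCl2, 1 mM MgCl2). Currents recorded continuously at −60 mV or by 400 ms ramps from −40 mV holding every 4 s; inward/outward currents taken at −80/80 mV, with controlled-temperature focal perfusion.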

[1] = tested on: formalin-induced pain behaviors in the rat; experiment: Formalin-induced pain test (formalin model), duration of pain behaviors; assay type: in vivo
Procedure: Exemplary compounds of the invention were tested in the formalin-induced pain test reported by Dubuisson et al., Pain 1977 December; 4(2):161-74 (incorporated herein by reference in its entirety). Briefly, dilute formalin (50 μL of 3% formalin) was injected into the plantar surface of the hind paw of a rat. […] The individual responsible for counting the pain behaviors in a particular study was blinded to the treatment groups.
The initial phase (Phase I: 0-5 min) is thought to have a significant component that is dependent upon direct activation of afferent fibers by formalin and functional TRPA1 (McNamara et al., 2007).
Investigators studied oral administration of compounds of the invention at the doses presented in Table 3 on pain behaviors in the formalin model in the rat. Compounds were formulated as solutions in water with various solvents and excipients including dimethyl sulfoxide (DMSO), polyethylene glycol (15)-hydroxystearate (Solutol®, Sigma-Aldrich), caprylocaproyl macrogol-8 glyceride (Labrasol®, Sigma-Aldrich), polysorbate-80 (Tween®-80, Sigma-Aldrich), and polyoxyl 35 castor oil (Cremophor® EL, BASF Corp.); or suspensions in methylcellulose as indicated in Table 3. Animals were dosed orally with the vehicle, or compounds of the invention one hour prior to intraplantar formalin. […] A decrease over Vehicle indicates a positive result. P values, when indicated, indicate significance compared Vehicle.

[2] = tested on: CFA-induced cold hypersensitivity of the hind paw; experiment: CFA-induced pain test, cold hypersensitivity (cold plate paw withdrawal latency); assay type: in vivo; conditions: cold plate 1° C.; for Average PWL Post-Treatment / PWL Change: 1-2 hour pre-treatment; for Average PWL Post-CFA: baseline before dosing
Procedure: Embodiments of the invention may be efficacious in the treatment of inflammatory pain. Compounds of the invention were tested by the CFA-induced pain test method. Compounds were formulated as solutions in water with various solvents and excipients including dimethyl sulfoxide (DMSO), polyethylene glycol (15)-hydroxystearate (Solutol®, Sigma-Aldrich), caprylocaproyl macrogol-8 glyceride (Labrasol®, Sigma-Aldrich), polysorbate-80 (Tween®-80, Sigma-Aldrich), and polyoxyl 35 castor oil (Cremophor® EL, BASF Corp.); or suspensions in methylcellulose as indicated in Table 3 for oral delivery. Briefly, the hind paw was sensitized to cold temperature (allodynic) by administering 0.1 mL of Complete Freund's Adjuvant (CFA) to the right hind paw. Three days later, the time taken for the animal to lift its CFA-injected paw was recorded compared to its un-injected normal left hind paw. […] To avoid tissue damage the maximum cut-off time was 5 minutes. Animals that were allodynic (average PWL to the first three pain behaviors <150 seconds for the CFA-injected hind paw: ˜≥50% difference between the normal and CFA-injected paw) were included in the study and subsequently randomized across treatment groups. The following day, the animals were dosed orally under blinded conditions. Following the 1-2 hour pre-treatment time, the post-dose PWL readings were again taken. The efficacy of the drug treatment was assessed by comparing the PWL in the drug treatment animals to those animals that receive the vehicle. P values, when indicated, indicate significance compared Vehicle.

[3] = 1 mg/kg PO one hour prior to formalin, solution in 4% DMSO, 5% Tween-80, 20% Cremophor EL, 71% water
[4] = 1 mg/kg PO one hour prior to formalin, suspension in 0.5% methylcellulose
[5] = 3 mg/kg PO one hour prior to formalin, solution in 4% DMSO, 5% Tween-80, 20% Cremophor EL, 71% water
[6] = 3 mg/kg PO one hour prior to formalin, suspension in 0.5% methylcellulose
[7] = 10 mg/kg PO one hour prior to formalin, solution in 4% DMSO, 5% Tween-80, 20% Cremophor EL, 71% water
[8] = 10 mg/kg PO one hour prior to formalin, suspension in 0.5% methylcellulose
[9] = 30 mg/kg PO one hour prior to formalin, suspension in 0.5% methylcellulose
[10] = 0.3 mg/kg PO, solution in 4% DMSO, 5% Tween-80, 20% Cremophor EL, and 71% water
[11] = 0.3 mg/kg PO, suspension in 0.5% methylcellulose
[12] = 1 mg/kg PO, solution in 4% DMSO, 5% Tween-80, 20% Cremophor EL, and 71% water
[13] = 1 mg/kg PO, suspension in 0.5% methylcellulose
[14] = 3 mg/kg PO, solution in 4% DMSO, 5% Tween-80, 20% Cremophor EL, and 71% water
[15] = 3 mg/kg PO, suspension in 0.5% methylcellulose
[16] = group 0.3 mg/kg PO, solution in 4% DMSO, 5% Tween-80, 20% Cremophor EL, and 71% water
[17] = group 1 mg/kg PO, solution in 4% DMSO, 5% Tween-80, 20% Cremophor EL, and 71% water
[18] = group 3 mg/kg PO, solution in 4% DMSO, 5% Tween-80, 20% Cremophor EL, and 71% water

| SMILES | IC50 (human TRPA1) | Duration (0-2 Minutes) Average [1, 3] | Duration (0-5 Minutes) Average [1, 3] | Duration (0-2 Minutes) Average [1, 5] | Duration (0-5 Minutes) Average [1, 5] | Duration (0-2 Minutes) Average [1, 7] | Duration (0-5 Minutes) Average [1, 7] | Average PWL Post-Treatment [2, 10] | PWL Change [2, 10] | Average PWL Post-Treatment [2, 12] | PWL Change [2, 12] | Average PWL Post-Treatment [2, 14] | PWL Change [2, 14] | Average PWL Post-CFA [2, 16] | Average PWL Post-CFA [2, 17] | Average PWL Post-CFA [2, 18] | also measured |
| --- | --- | --- | --- | --- | --- | --- | --- | --- | --- | --- | --- | --- | --- | --- | --- | --- | --- |
| Cc1cc(Cn2c(=O)c3c(ncn3[C@@H](C)C(=O)Nc3cncc(-c4cnc(C(F)(F)F)nc4)n3)n(C)c2=O)no1 [Compound 21, (S)-2-(3-methyl-1-((5-methylisoxazol-3-yl)methyl)-2,6-dioxo-2,3-dihydro-1H-purin-7(6H)-yl)-N-(6-(2-(trifluoromethyl)pyrimidin-5-yl)pyrazin-2-yl)propanamide] | 19 nM | 99.6 s | 206.9 s | 97.5 s | 186.9 s | 71.8 s | 116.5 s | 159.2 | 49.6 s | 208.5 | 94.2 s | 258.9 | 148.8 s | 109.6 | 114.3 | 110.1 | Duration (0-2 Minutes) Average [1, 4]: 80.5 s; Duration (0-5 Minutes) Average [1, 4]: 202.5 s; Duration (0-2 Minutes) Average [1, 6]: 86.5 s; Duration (0-5 Minutes) Average [1, 6]: 190.1 s; Duration (0-2 Minutes) Average [1, 8]: 78.0 s and 92.3 s; Duration (0-5 Minutes) Average [1, 8]: 202.8 s and 163.1 s; Duration (0-2 Minutes) Average [1, 9]: 100.5 s; Duration (0-5 Minutes) Average [1, 9]: 165.4 s; Average PWL Post-Treatment [2, 11]: 106.4; PWL Change [2, 11]: 11.9 s; Average PWL Post-Treatment [2, 13]: 155.2; PWL Change [2, 13]: 59.8 s; Average PWL Post-Treatment [2, 15]: 236.7; PWL Change [2, 15]: 142.4 s; Average PWL Post-CFA ([2]; group 0.3 mg/kg PO, suspension in 0.5% methylcellulose): 94.5; Average PWL Post-CFA ([2]; group 1 mg/kg PO, suspension in 0.5% methylcellulose): 95.4; Average PWL Post-CFA ([2]; group 3 mg/kg PO, suspension in 0.5% methylcellulose): 94.3 |
| CC(=O)Cn1c(=O)c2c(ncn2[C@@H](C)C(=O)Nc2ccnc(-c3cnc(N4CC5C(C4)C5(F)F)nc3)n2)n(C)c1=O (stereo partly drawn) [Compound 61, (2S)—N-(2′-(6,6-difluoro-3-azabicyclo[3.1.0]hexan-3-yl)-[2,5′-bipyrimidin]-4-yl)-2-(3-methyl-2,6-dioxo-1-(2-oxopropyl)-2,3-dihydro-1H-purin-7(6H)-yl)propanamide] | 8 nM | 89.4 s | 149.3 s | 90.3 s | 152.3 s | 52.8 s | 120.0 s | 157.1 | 60.9 s | 235.4 | 139.4 s | 278.5 | 182.7 s | 96.2 | 96.0 | 95.8 | – |
| COCC(=O)Cn1c(=O)c2c(ncn2[C@@H](C)C(=O)Nc2csc(-c3cnc(N4CC5CC5C4)nc3)n2)n(C)c1=O (stereo partly drawn) [Compound 105, (2S)—N-(2-(2-(3-azabicyclo[3.1.0]hexan-3-yl)pyrimidin-5-yl)thiazol-4-yl)-2-(1-(3-methoxy-2-oxopropyl)-3-methyl-2,6-dioxo-2,3-dihydro-1H-purin-7(6H)-yl)propanamide] | – | 97.9 s | 162.6 s | 86.0 s | 154.0 s | 70.1 s | 137.3 s | 137.3 | 34.9 s | 215.2 | 112.8 s | 226.3 | 123.6 s | 102.4 | 102.3 | 102.7 | – |

Continued, in another order:

| IC50 (human TRPA1) | SMILES | Duration (0-2 Minutes) Average [1, 3] | Duration (0-5 Minutes) Average [1, 3] | Duration (0-2 Minutes) Average [1, 5] | Duration (0-5 Minutes) Average [1, 5] | Duration (0-2 Minutes) Average [1, 7] | Duration (0-5 Minutes) Average [1, 7] | Average PWL Post-Treatment [2, 10] | PWL Change [2, 10] | Average PWL Post-Treatment [2, 12] | PWL Change [2, 12] | Average PWL Post-Treatment [2, 14] | PWL Change [2, 14] | Average PWL Post-CFA [2, 16] | Average PWL Post-CFA [2, 17] | Average PWL Post-CFA [2, 18] | also measured |
| --- | --- | --- | --- | --- | --- | --- | --- | --- | --- | --- | --- | --- | --- | --- | --- | --- | --- |
| 4 nM | CC(=O)Cn1c(=O)c2c(ncn2[C@@H](C)C(=O)Nc2cccc(-c3cnc(N4CC5C(C4)C5(F)F)nc3)n2)n(C)c1=O (stereo partly drawn) [Compound 25, (2S)—N-(6-(2-(6,6-difluoro-3-azabicyclo[3.1.0]hexan-3-yl)pyrimidin-5-yl)pyridin-2-yl)-2-(3-methyl-2,6-dioxo-1-(2-oxopropyl)-2,3-dihydro-1H-purin-7(6H)-yl)propanamide] | 87.8 s | 190.1 s | 22.8 s | 98.3 s | 29.1 s | 146.0 s | 170.2 | 65.2 s | 224.8 | 119.7 s | 259.9 | 154.9 s | 105.0 | 105.1 | 105.1 | – |
| 1 nM | C[C@@H](C(=O)Nc1csc(-c2cnc(N3CC4CC4C3)nc2)n1)n1cnc2c1c(=O)n(CC#N)c(=O)n2C (stereo partly drawn) [Compound 34, (2S)—N-(2-(2-(3-azabicyclo[3.1.0]hexan-3-yl)pyrimidin-5-yl)thiazol-4-yl)-2-(1-(cyanomethyl)-3-methyl-2,6-dioxo-2,3-dihydro-1H-purin-7(6H)-yl)propanamide] | – | – | – | – | 34.9 s | 154.6 s | 185.6 | 80.7 s | 205.4 | 107.4 s | 272.6 | 169.0 s | 104.9 | 98.0 | 103.6 | – |
